“Also recorded” adds a separate entry of the source. Read-outs that look alike come from different tables or passages of the source.
Columns and labels:
amyloid = experiment: Labelling / staining of amyloid deposits; format: binding
tangle fragments = experiment: Competitive binding assay: displacement of primulin fluorescence from tangle fragments (ifI); set-up: species or system human; conditions: for competition with / displacement of other ligands at tangles: fluorescence end point
Experimental: IfI material was homogenised in a 0.2 ml glass homogeniser in PBS. To the suspension, test compounds were added to final concentrations ranging from 0.1% to 0.00001%. […] The suspensions were transferred to a glass slide, and examined by fluorescence microscopy across a range of fluorescence filter blocks, covering excitation and emission wavelengths between 380 nm and 570 nm. The end point sought in these observations was displacement of typical primulin fluorescence from tangle fragments.

tau-tau binding = target: T1, tau-tau binding (Homo sapiens, UniProt P10636); experiment: Solid-phase tau-tau binding assay (dGA solid phase, dGAE liquid phase), tau Preparation 2; format: biochemical; conditions: for tau-tau binding relative to that seen in the absence of DMMB: tau typically 1 μM
T1 construct: a truncated tau protein corresponding to the core fragment and terminating at Ala390-dGA; dGAE which terminates at Glu-391; made in house; host or cells: E. coli BL21 (DE3), pRK172; DE52 flow-through, P11 phosphocellulose, PEG concentration, no heat step (Preparation 2)
Experimental: Preparation 2 differs from Preparation 1 above in the following respects: (1) The concentration of cells at the sonication stage is increased by 5-fold. (2) A batchwise adsorption of non-tau proteins to DE52 is included. (3) The proteins are not subjected to heat treatment. (4) The final step involves concentration using polyethylene glycol.
Escherichia coli is grown in 2×TY medium (Oxoid) supplemented with ampicillin (50 micrograms per ml) to late-logarithmic phase. Cells from 5 liters of culture are harvested by centrifugation and the cell pellets frozen rapidly over liquid nitrogen. The pellets are taken up with 50 mM PIPES (pH 6.8) containing 1 mM EDTA, 1 mM dithiothreitol and 1 mM phenylmethylsulphonylfluoride (PMSF) and bacteria lysed by sonication (2×3 min) at 4 C. The mixture is centrifuged at 10,000 rpm for 20 min. The supernatant is rotated with 1 gram of Whatman DE52 for 3 hr at 4 C. The mixture is separated on a column and the flow-through material that fails to bind to DE52 is incubated for 3 hr at 4 C, with rotation, with 0.4 g of Whatman P11 (freshly regenerated according to manufacturer's recommendations). The column is washed with column buffer (50 mM PIPES, pH 6.8 containing 1 mM EGTA, 5 mM EDTA, 0.2 mM MgCl2, 5 mM β-mercaptoethanol and 1 mM PMSF). Tau protein is eluted stepwise with a 0.1 to 1 M gradient of KCl in column buffer. Fractions containing tau (determined by immunoassay) are pooled and dialysed against 80 mM PIPES (pH6.8) containing 1 mM EGTA, 1 mM MgCl2 and 5 mM β-mercatoethanol, using dialysis tubing with a molecular weight cut-off of 1,000. The dialysate is concentrated by applying polyethylene glycol 8000 to the outside of the sac for 2-3 hr. The final concentration of tau ranged from 3 to 10 mg per ml.
When the proteins dGA and dGAE were prepared as indicated above (“Preparation 2”), the properties of the tau-tau binding assay were altered relative to the properties obtained using the preparative method described in WO96/30766 (“Preparation 1”).
The assay is performed using 96 well PVC plates (Falcon Cat. No. 353912 are used), and the following steps:
1. 50 μl dGA (˜10 μg/ml) in carbonate buffer, incubate 1 h at 37° C.
(Carbonate buffer: 50 mM carbonate bicarbonate, pH 9.6 (Na2CO3 1.59 g/l, NaHCO3 2.93 g/l))
2. Wash plate in 0.05% Tween-20.
3. 200 μl PBS+2% Marvel, incubate 1 h at 37° C.
4. Rinse plate 2× in deionised water, then wash in 0.05% Tween-20.
5. 50 μl dGAE (˜10 μg/ml) plus drug in PBS+1% fish skin gelatin+0.05% Tween-20, incubate 1 h at 37° C.
6. Wash plate in 0.05% Tween-20.
7. 50 μl antibody 423 (1:10 dilution in PBS+2% Marvel), incubate 1 h at 37° C.
8. Rinse plate 2× in deionised water, then wash in 0.05% Tween-20.
9. 50 μl HRP-anti-mouse (1:1000 dilution in PBS+0.05% Tween-20), incubate 1 h at 37° C.
10. Wash plate in 0.05% Tween-20, then rinse 1× with deionised water.
11. 50 μl substrate solution, read immediately initial rate over 2 min in plate reader at OD650.
(Substrate solution: 50 mM sodium acetate, pH 5.0+TMB (1 ml/100 ml of a 10 mg/ml solution in DMSO)+H2O2 (10 μl/100 ml)).

isolated PHFs = experiment: Ligand electronmicroscopy of Pronase-digested PHFs (gold-conjugated anti-biotin antibody); format: binding
Experimental: (§1) In ifI suspensions such as this, tangles can be seen by blue fluorescence which is […] from that associated with binding of contaminants in the preparation. […] (a) Chemical labelling with the biotinylated benzothiazole analogue shown as 4b in FIG. 4. PHFs were deposited on a carbon-coated grid after Pronase digestion, and incubated briefly with compound 4b, and then incubated with an anti-biotin antibody preparation that had been conjugated with colloidal gold. […] (b) mAb 423 immunolabelling of isolated PHFs after Pronase digestion., followed by incubation with a gold-conjugated goat anti-mouse second antibody as described in Novak et al. 1993 (Novak M, Kabat J, Wischik C M (1993) “Molecular characterisation of the minimal protease-resistant tau unit of the Alzheimers' disease paired helical filament”, EMBO J. 12: 365-370). As shown in this paper, mAb 423 labels PHFs derived from intracellular tangles (which preserve N-terminal tau immunoreactivity in the fuzzy outer coat) poorly, but Pronase digested PHFs strongly.
PHFs derived from an ifI fraction were deposited on a carbon coated grid after pronase digestion, and incubated briefly with a preparation of biotinylated Primulin, and then incubated with an anti-biotin antibody that has been conjugated with colloidal gold by the method of Slot and Gueze (1981).

PHFs = experiment: Spectrofluorometry of primulin in solution and bound to PHFs (ifII); format: binding; conditions: PHFs with bound primulin treated with the substance
Experimental: These measurements were carried out in a Perkin-Elmer spectrofluorimeter (model MPF-3). A concentration of ligand of 0.00001% was routinely used for all measurements. […] All measurements were therefore carried out at a standard excitation wavelength of 370 nm, and a constant slit width of 3 mm.
Further investigations into the relationship between aggregation-dependent tau ligands and tau aggregation inhibitors were carried out using primulin. Primulin in solution has a fluorescence peak at 520 nm. This shifts to 470 nm when primulin is bound within a pure preparation of PHFs (FIG. 6). […] Therefore, binding by such compounds is dependent on the polymerised state of tau found in the PHF, but is not present in free tau.
Compounds have been identified which disrupt the structure of the PHF and reverse the proteolytic stability of the PHF core (see WO 96/30766). Examples of such compounds are shown in accompanying FIG. 8. The present inventors have now identified that these compounds bind to tau at a specific binding site within the high affinity tau-tau binding domain.

neurofibrillary tangles = experiment: Fluorescence labelling of tangles (sections, ifI tangle suspensions); format: binding, human
Experimental: as §1
Serial 16 μm sections are cut from the hippocampus of a case dying with clinically and neuropathologically confirmed AD. […]
A Leitz fluorescence microscope fitted with a photo-multiplyer tube (Model MPV-2) was used to quantitate fluorescence emission. […]

T1 sequence (P10636 614-708 limits assumed): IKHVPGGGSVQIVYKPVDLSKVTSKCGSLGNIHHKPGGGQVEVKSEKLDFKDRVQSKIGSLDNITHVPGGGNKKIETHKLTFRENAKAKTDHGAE

2-(4-amino phenyl)-6-methyl-1-sulphonate benzothiazole [compound 2]
displaced from amyloid by primulin (amyloid): not amyloid
labelling / staining of amyloid (amyloid): bind preferentially to amyloid
displaced from tangles by primulin (SB-ligand) (tangle fragments): displaced from NFTs; also recorded: displace this from tangles

Cc1cc(=[N+](C)C)cc2sc3cc(N(C)C)cc(C)c3nc1-2.[Cl-] [DMMB, dimethyl methylene blue]
inhibitory potency in Preparation 2 compared with Preparation 1 (tau-tau binding): higher inhibitory potency in Preparation 2 than in Preparation 1
tau-tau binding relative to that seen in the absence of DMMB (tau-tau binding; DMMB 5 μM): 23%
tau-tau binding relative to that seen in the absence of DMMB (tau-tau binding; DMMB 15 μM): 17%

O=C(O)CCCC[C@@H]1SC[C@@H]2NC(=O)N[C@@H]21 [biotin]
immunogold anti-biotin labelling of isolated PHFs after pre-incubation (isolated PHFs): no labelling

CC1=CC(=O)OC1=O [citraconic anhydride]
effect on PHF-bound primulin fluorescence peak (PHFs): disrupting the orderly structure of PHFs and releasing free tau and free unbound primulin; also recorded: abolish the 470 nm fluorescence peak

Cc1ccc2sc(-c3ccc(N=Nc4ccccc4O)cc3)nc2c1S(=O)(=O)[O-].[Na+] [compound 4a]
activity as ligand (tangle fragments): active ligands
competition with / displacement of other ligands at tangles (tangle fragments): compete out thiazin red and primulin fluorescence at equivalent concentrations

Cc1ccc2sc(-c3ccc(N=Nc4cc(CCC(=O)ON5C(=O)CCC5=O)ccc4O)cc3)nc2c1S(=O)(=O)[O-].[Na+] [compound 4b]
competition with / displacement of other ligands at tangles (tangle fragments): compete primulin and thiazin red
immunogold anti-biotin labelling of isolated PHFs after pre-incubation (isolated PHFs): binds to the proteolytically stable PHF structure; also recorded: label isolated PHFs

Cc1ccc2sc(-c3ccc(N=NNc4ccc(-c5nc6c(S(=O)(=O)[O-])c(C)ccc6s5)cc4)cc3)nc2c1S(=O)(=O)[O-].[Na+].[Na+] [thiazin yellow]
activity as ligand (tangle fragments): inactive as a ligand; also recorded: does not serve as an effective ligand
competition with / displacement of other ligands at tangles (tangle fragments): did not

Cc1ccc2c(c1)sc(-c1ccc(N(C)C)cc1)[n+]2C.[Cl-] [thioflavin-T]
labelling of tangles (neurofibrillary tangles): barely visible tangle; also recorded: much less effective
labelling / staining of amyloid (amyloid): labelled amyloid preferentially; also recorded: strongly stain amyloid deposits
labelling / staining of amyloid (amyloid; listed as 1b): bind preferentially to amyloid
displaced from tangles by primulin (SB-ligand) (tangle fragments): displaced by yellow tangle fluorescence produced by primulin; also recorded: can be displaced from tangles by primulin
displaced from tangles by primulin (SB-ligand) (tangle fragments; listed as 1b): displaced from NFTs
displaced from tangles by primulin (SB-ligand) (tangle fragments; listed as compound 1b): displace compound 1b at tangles

alcian blue
effect on PHF-bound primulin fluorescence peak (PHFs): no disturbance of the characteristic bound primulin fluorescence peak; also recorded: retention of the fluorescence peak of primulin at 470 nm
